Assay [1] relates to CCE A-CHK1 clone #2 cells. Put plainly: Competition assay of A-CHK1 clone #2 cells against GFP-A CCE cells. The following applies: 50 μM IAA-treated A-CHK1 cells compared to the EtOH-treated controls. It counts as cell-based, mouse. As for the experimental part: FIGS. 6A-6E show CHK1 depletion under normal growth conditions in mESCs. FIG. 6A show images of cells assayed for alkaline phosphatase activity. CCE mESCs were infected with pRAIDRS GFP-A or A-CHK1 and selected in the presence of EtOH (“Con”) or auxin (“IAA”). After colonies emerged, cells were assayed for alkaline phosphatase activity. Left, low magnification scans. Right, bright-field microscope images. Scale bars, 100 μm. […] FIG. 6B are graphs showing populations doubling, following selection, of the indicated clones cultured in the presence of 0.01% EtOH (solid lines) or 50 μM IAA (dashed lines). Cells were counted and replated every 3-4 days and population doublings were calculated as Log2 (cell output/cell input). Experiment was conducted once for these clones. […] Cells were collected every 2-3 days and assayed for GFP and mCherry fluorescence by flow cytometry. The percentage of A-CHK1 cells was calculated for each time point and the values for the auxin-treated cells were normalized to those of EtOH-treated cells. An average growth rate decrease of 8% per day was calculated for auxin-treated A-CHK1 cells compared to the EtOH-treated controls. […] In FIG. 6E, the indicated clones were treated with 0.01% EtOH or 50 μM auxin (“IAA”) for 3 days and analyzed for the expression of self-renewal and differentiation markers by QRT-PCR. […]

For assay [2], the system named is dnMAML1-NLS-GFP-OsJAZ^33 (dnM1-GFP-J). Put plainly: Coronatine-dependent degradation of dnM1-GFP-J in hESCs (fluorescence microscopy). The following applies: hESCs harboring pRAIDRS NICD-A and pJAZ dnM1-GFP-J, 50 μM coronatine, 1 day. Format: cell-based, human. As for the experimental part: FIGS. 14A-14C illustrate a dual switch for dissection of NOTCH1 function in hESCs. H9 hESCs were infected with pRAIDRS harboring an shRNA targeting the full-length NOTCH1 receptor and an NICD-AID^47 CDS (“NICD-A”). As a control, cells were infected with pRAIDRS NLS-GFP-AID^47 (“GFP-A”). Cells were maintained with 250 μM auxin to prevent NICD-A accumulation. Following selection and isolation of colonies with ESC morphology, cells were infected with pJAZ dnMAML1-NLS-GFP-OsJAZ^33 (“dnM1-GFP-J”) or pJAZ NLS-GFP-OsJAZ^33 (“GFP-J”) as control and post-selection colonies were expanded. FIG. 14A is a western blot analysis of pRAIDRS GFP-A and NICD-A hESCs maintained in the presence of 250 μM auxin (“IAA”), washed and incubated for 4 h in the presence (+) or absence (−) of auxin. […] Dashed lines mark colony borders. […] Dashed lines indicate instances where coronatine-mediated dnM1-GFP-J degradation restored NICD-A-dependent activity by at least twofold. […] See also FIGS. 13A-13E and 15.
In mice, NOTCH was also implicated in trophectoderm formation (Rayon et al., “Notch and Hippo Converge on Cdx2 to Specify the Trophectoderm Lineage in the Mouse Blastocyst,” Dev. Cell 30:410-422 (2014), which is hereby incorporated by reference in its entirety). […]

`O=C(O)Cc1c[nH]c2ccccc12` [auxin, indole-3-acetic acid]: in assay [1], the “average growth rate decrease” value came to 8 % per day. For `CC[C@H]1C=C(C(=O)N[C@@]2(C(=O)O)C[C@@H]2CC)[C@H]2CCC(=O)[C@H]2C1` [coronatine, Coronatine], the “degradation of dnM1-GFP-J” value in assay [2] is “effectively induced degradation”.

For the origin of these results see patent publication US11078496B2, “System for F-box hormone receptor regulated protein expression in mammalian cells” (ICAHN SCHOOL OF MEDICINE AT MOUNT SINAI, priority 2016, dated 2021).
